Data: the CheMixHub ionic liquid set

Experiment: xn = mol fraction of the nth substance listed

CCCC[n+]1ccn(C)c1.[O-][Cl+3]([O-])([O-])[O-] + CCO
viscosity [mPa·s], 101 kPa
Details	x2 = 0.592	x2 = 0.637	x2 = 0.79	x2 = 0.86
303.15 K	–	8.7	4	3.6
313.15 K	7.4	6.7	–	–

CCOC(C)=O + CCO + CCCC[n+]1ccn(C)c1.O=S(=O)([N-]S(=O)(=O)C(F)(F)F)C(F)(F)F
298.15 K, 101 kPa
Details	viscosity [mPa·s]
x2 = 0.0086, x1 = 0.9023	0.967
x2 = 0.0173, x1 = 0.804	1.818
x2 = 0.0216, x1 = 0.8938	0.982
x2 = 0.026, x1 = 0.7051	3.29
x2 = 0.0299, x1 = 0.9014	0.806
x2 = 0.035, x1 = 0.6029	5.36
x2 = 0.0405, x1 = 0.8009	1.644
x2 = 0.0422, x1 = 0.521	7.65
x2 = 0.045, x1 = 0.8887	0.803
x2 = 0.0534, x1 = 0.3936	12.87
x2 = 0.0549, x1 = 0.8911	0.714
x2 = 0.0571, x1 = 0.9051	0.658
x2 = 0.0615, x1 = 0.7971	1.44
x2 = 0.0622, x1 = 0.2942	17.63
x2 = 0.0632, x1 = 0.6895	2.89
x2 = 0.0688, x1 = 0.2189	22.5
x2 = 0.0754, x1 = 0.1444	28.1
x2 = 0.0777, x1 = 0.6181	4.09
x2 = 0.0778, x1 = 0.1168	30.1
x2 = 0.08, x1 = 0.8998	0.526
x2 = 0.0815, x1 = 0.0753	34.1
x2 = 0.0882, x1 = 0.7818	1.308
x2 = 0.0925, x1 = 0.6947	2.35
x2 = 0.0953, x1 = 0.8644	0.656
x2 = 0.0984, x1 = 0.5164	6.16
x2 = 0.0997, x1 = 0.8023	1.05
x2 = 0.1177, x1 = 0.6116	3.32
x2 = 0.1191, x1 = 0.802	0.89
x2 = 0.1234, x1 = 0.3937	9.59
x2 = 0.125, x1 = 0.6908	1.976
x2 = 0.1404, x1 = 0.3101	13.03
x2 = 0.1414, x1 = 0.7989	0.789
x2 = 0.1455, x1 = 0.5201	4.81
x2 = 0.1477, x1 = 0.707	1.521
x2 = 0.1591, x1 = 0.8229	0.523
x2 = 0.1604, x1 = 0.6032	2.8
x2 = 0.1639, x1 = 0.1949	18.29
x2 = 0.1658, x1 = 0.7923	0.681
x2 = 0.1735, x1 = 0.1475	21.3
x2 = 0.183, x1 = 0.6956	1.289
x2 = 0.1841, x1 = 0.0957	24.4
x2 = 0.1843, x1 = 0.392	7.6
x2 = 0.1948, x1 = 0.043	28.1
x2 = 0.1978, x1 = 0.5106	3.97
x2 = 0.1995, x1 = 0.6042	2.19
x2 = 0.2059, x1 = 0.7708	0.557
x2 = 0.213, x1 = 0.2974	10.46
x2 = 0.2132, x1 = 0.6967	1.026
x2 = 0.2314, x1 = 0.6152	1.684
x2 = 0.2434, x1 = 0.1969	14.03
x2 = 0.2448, x1 = 0.6933	0.829
x2 = 0.2449, x1 = 0.394	5.82
x2 = 0.247, x1 = 0.51	3.05
x2 = 0.2609, x1 = 0.1391	16.65
x2 = 0.2729, x1 = 0.0996	18.5
x2 = 0.2797, x1 = 0.6021	1.324
x2 = 0.2857, x1 = 0.2933	8.02
x2 = 0.2868, x1 = 0.0538	21
x2 = 0.2924, x1 = 0.6745	0.658
x2 = 0.2972, x1 = 0.5057	2.33
x2 = 0.3062, x1 = 0.3928	4.4
x2 = 0.3201, x1 = 0.5989	1.006
x2 = 0.3236, x1 = 0.1993	10.53
x2 = 0.3448, x1 = 0.147	12.41
x2 = 0.3553, x1 = 0.4946	1.727
x2 = 0.356, x1 = 0.294	5.97
x2 = 0.3662, x1 = 0.094	14.33
x2 = 0.3681, x1 = 0.3878	3.28
x2 = 0.3736, x1 = 0.5842	0.736
x2 = 0.3833, x1 = 0.0516	16.14
x2 = 0.3974, x1 = 0.502	1.235
x2 = 0.4042, x1 = 0.1983	7.96
x2 = 0.4237, x1 = 0.3973	2.32
x2 = 0.4281, x1 = 0.288	4.46
x2 = 0.4291, x1 = 0.149	9.07
x2 = 0.4547, x1 = 0.0982	10.36
x2 = 0.4684, x1 = 0.4786	0.869
x2 = 0.4784, x1 = 0.0511	11.87
x2 = 0.4799, x1 = 0.3986	1.585
x2 = 0.4832, x1 = 0.1963	5.71
x2 = 0.508, x1 = 0.155	6.45
x2 = 0.5162, x1 = 0.2658	3.24
x2 = 0.5407, x1 = 0.1007	7.42
x2 = 0.5473, x1 = 0.3908	1.023
x2 = 0.5621, x1 = 0.2957	2.03
x2 = 0.5657, x1 = 0.1954	3.92
x2 = 0.574, x1 = 0.0452	8.7
x2 = 0.598, x1 = 0.1495	4.39
x2 = 0.6293, x1 = 0.2115	2.49
x2 = 0.6333, x1 = 0.0992	5.1
x2 = 0.6413, x1 = 0.2861	1.252
x2 = 0.6634, x1 = 0.0564	5.74
x2 = 0.6743, x1 = 0.1551	2.84
x2 = 0.7038, x1 = 0.1181	3.11
x2 = 0.7282, x1 = 0.1894	1.533
x2 = 0.7476, x1 = 0.0632	3.67
x2 = 0.7565, x1 = 0.1579	1.636
x2 = 0.8052, x1 = 0.1037	1.848
x2 = 0.8459, x1 = 0.0584	2.09

CCCC[n+]1ccn(C)c1.F[P-](F)(F)(F)(F)F + CCOC(C)=O
298.15 K
Details	electrical conductivity, x2 = 0.2746 [S/m]	electrical conductivity, x2 = 0.4156 [S/m]	electrical conductivity, x2 = 0.7532 [S/m]	electrical conductivity, x2 = 0.8821 [S/m]	viscosity, x2 = 0.2746 [mPa·s]	viscosity, x2 = 0.4156 [mPa·s]	viscosity, x2 = 0.6524 [mPa·s]	viscosity, x2 = 0.7532 [mPa·s]	viscosity, x2 = 0.8821 [mPa·s]
101 kPa	0.452	0.67	1.12	0.726	60.7	27.8	–	3.33	1.43
101.3 kPa	–	–	–	–	–	–	6.22	–	–

CC(=O)c1ccccc1 + CCOS(=O)(=O)[O-].CC[n+]1ccn(C)c1
100 kPa
Details	viscosity [mPa·s]
293.15 K, x1 = 0.7973	4.3
303.15 K, x1 = 0.2	27.1
303.15 K, x1 = 0.4002	16.4
303.15 K, x1 = 0.7973	5.3
303.15 K, x1 = 0.9502	2.48
303.15 K, x1 = 1	1.65
313.15 K, x1 = 0.6921	5.6
313.15 K, x1 = 0.8999	3.3
313.15 K, x1 = 0.9502	2
313.15 K, x1 = 1	1.37
323.15 K, x1 = 0.3008	10.7
323.15 K, x1 = 0.5999	5.8
323.15 K, x1 = 0.8999	1.94
323.15 K, x1 = 1	1.17
333.15 K, x1 = 0.0505	16.2
333.15 K, x1 = 0.0997	14.2
